Reference: patent EP0465913B1, “Diaminotrifluoromethylpyrimidine derivatives, process for their production and phospholipase A2 inhibitor containing them” (ISHIHARA SANGYO KAISHA, LTD., priority 1990, dated 1992)
Where two headings read alike, the source gives them in different places.

Experiments:
[1] = system: experimental acute pancreatitis model; test: Effects against acute pancreatitis (Test Example 8, closed duodenal loop method, lesion scores); format: in vivo, Crj-CD male rats; details: sodium salt, 6 hours after ventrotomy; for inhibition in vivo at 10 mg/kg: Rattus norvegicus, 10 mg/kg single intravenous injection
How it was run: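 Closed duodenal loop pancreatitis in male Crj-CD rats (n=3) under halothane/nitrous oxide; sodium-salt compounds given i.v. into tail vein by continuous infusion or bolus, controls untreated. At 6 h, four pancreatic lesions scored 0-3; inhibition % of total and hemorrhagic scores calculated versus control.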

[2] = system: increased vascular permeability induced by acetic acid; test: Inhibitory activity on increased vascular permeability induced by acetic acid (Mouse Whittle method, method C); format: in vivo, ddy male mice; details: amount of leaked dye
Procedure: Using ddy male mice, each test group consisted of 4 or 5 mice. A test compound was mixed with Tween 80 [polyoxyethylenesorbitan monooleate (manufactured by Nacalai Tesque K.K.)], and distilled water was added thereto to obtain a 2% Tween 80 suspension, or it was dissolved in the form of a salt in water to obtain an aqueous solution. A test compound was orally administered, and upon expiration of one hour from the administration, 0.7% acetic acid was intraperitonially injected to each mouse in an amount of 0.1 ml/10 g, and at the same time, 2% brilliant blue was intravenously injected into the tail vein in an amount of 0.1 ml/20 g. Thirty minutes after the injection of brilliant blue, the cervical vertebrae were dislocated under anesthesia by chloroform, and the abdorminal cavity was washed with 5 ml of a physiological saline. The washing solution was subjected to centrifugal separation at 3,000 rpm for 10 minutes, and the amount of the dye in the supernatant was measured at 600 nm absorbance by Microplate ELISA Reader (Model 2550EIA Reader, manufactured by Bio-Rad Laboratories). The inhibition rate of the amount of leaked dye in the group in which a test compound was administered relative to the control group was obtained by the following formula. Inhibition rate (%) = (l -(C)/(D)) x 100 [formula] • C: Amount of leaked dye in the group to which a test compound was administered. • D: Amount of leaked dye in the control group.

[3] = target: T1, Porcine pancreatic phospholipase A2 (Sus scrofa, UniProt P00592); test: Phospholipase A2 inhibitory activity, method A (egg yolk lecithin substrate); format: biochemical; details: 1,000 ppm, 37°C for 30 minutes, read-out: % inhibition of PLA2 (1,000 ppm)
T1 construct: purchased Boehringer Mannheim·Yamanouchi K.K. 161454·122416
Procedure: To 10 mg of egg yolk lecithin (manufactured by Wako Pure Chemical Industries Ltd.), 1 ml of glycerine, 2 ml of a 50 mM Tris-HCl buffer solution (pH7.5) [Tris(hydroxymethyl)aminomethane (manufactured by Nacalai Tesque K.K.) was adjusted to pH7.5 with hydrochloric acid], 0.5 ml of a 150 mM calcium chloride solution (calcium chloride was dissolved in a 50 mM Tris-HCl buffer solution) and 0.5 ml of a 0.05% Triton-X100 (manufactured by Nacalai Tesque K.K.) solution (Triton-X100 was dissolved in a 50 mM Tris-HCl buffer solution), were added and dispersed by an agate mortar or dispersed by an ultrasonic processor (Model W-225, manufactured by Heat System-Ultrasonics, Inc.) for 5 minutes (30W) to obtain a substrate.
Porcine pancreatic phospholipase A2 [(161454·122416) manufactured by Boehringer Mannheim·Yamanouchi K.K.] was used.
To a 96 well microtitration plate (flat bottom, manufactured by Sumitomo Bakelite Medical Co., Ltd.), 40 µl of the substrate, 5 µl of a solution prepared by dissolving 10 mg of a test compound in 500 µl of dimethylsulfoxide, followed by an addition of 500 µl of a 50 mM Tris-HCl buffer solution, and 5 µl of an enzyme solution of 20 ng/ml (prepared by diluting the enzyme in a 50 mM Tris-HCl buffer solution), were added and reacted at 37°C for 30 minutes. After termination of the reaction, the released free fatty acid was quantitatively analyzed in accordance with the ACS-ACOD (acyl CoA synthetase-acyl CoA oxidase) method [a kit of NEFA C test wako (manufactured by Wako Pure Chemical Industries, Ltd.) was used]. The quantitative analysis was made by means of Microplate ELISA Reader (Model 2550EIA Reader, manufactured by Bio-Rad Laboratories) at a wavelength of 540 nm. Separately, such experiments as mentioned above, were carried out at various concentrations (2 µg/ml, 1 µg/ml and 0.5 µg/ml) of phospholipase A2 without a test compound. Then, the concentration of the free fatty acid versus the concentration of phospholipase A2 was plotted.
From this standard curve, the apparent concentration of phospholipase A2 in the case with a test compound, was read. Then, the percent inhibition of the enzyme was calculated by the following formula. Percent inhibition (%) = (l -(A)/(B)) x 100 [formula] • A: Apparent enzyme concentration when a test compound is added. • B: True enzyme concentration when a test compound is added.

[4] = Acute toxicity, intravenous injection (LD50); format: in vivo; details: mouse, in vivo, ddy male mice, sodium salt, mortality over one week
Procedure: Administration route: Intravenous injection
Using ddy male mice (body weight: 25 - 30 g), each test group consisted of 5 mice. A test compound was dissolved in the form of a sodium salt in a physiological saline or in a 5% glucose aqueous solution, and intravenously injected in an amount of 0.1 ml/10 g body weight. After the injection, the mortality rate was obtained over one week, and the median lethal dose LD50 (mg/kg) was determined.

carrageenin edema = test: Inhibitory activity on carrageenin edema; format: in vivo, Wistar male rats; details: po, 3 h; rat; dose 100 mg/kg orally; paw swelling volume three hours after carrageenin; read-out: Inhibition rate (%)
How it was run: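 Male Wistar rats (about 100 g, 5 per group) dosed orally at 200, 100, 50 or 25 mg/kg as 2% Tween 80 suspension or aqueous salt solution, 1 h before subplantar injection of 0.1 ml 1% λ-carrageenin. Paw swelling measured at 3 h; % inhibition versus control group mean swelling.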

[5] = read-out: Inhibition rate of hemorrhagic lesions (%)
[6] = read-out: Inhibition rate of pancreatitis lesions (%)
[7] = 20 mg/kg continuous intravenous injection

T1 sequence (P00592 23-146): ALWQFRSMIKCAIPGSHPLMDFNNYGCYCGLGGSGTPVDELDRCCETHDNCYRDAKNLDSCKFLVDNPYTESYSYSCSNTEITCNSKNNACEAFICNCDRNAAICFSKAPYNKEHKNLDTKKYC

In the case of `CCCC(=O)Nc1cc(C(F)(F)F)cnc1NS(C)(=O)=O` [Compound No. 1], the inhibition in vivo at 10 mg/kg [1, 5] is reported as 66%, the inhibition in vivo at 10 mg/kg [1, 6] is reported as 49% and the “Inhibition rate (%)” value ([2]; dose 50 mg/kg orally) is reported as 46%. The inhibition at 1000 ppm [3] was 45% and the LD50 at 168 h ([4]; iv) was 100 to 150 mg/kg.

For `CCCCC(=O)Nc1cc(C(F)(F)F)cnc1NS(C)(=O)=O` [Compound No. 2], the “Inhibition rate of hemorrhagic lesions (%)” value ([1]; 26 mg/kg continuous intravenous injection) was 46%, the “Inhibition rate (%)” value ([2]; dose 20 mg/kg orally) was 51% and the inhibition in vivo at 100 mg/kg (carrageenin edema) was 17%. For the same compound, the inhibition at 1000 ppm [3] was 55% and the LD50 at 168 h ([4]; iv) was 50 to 100 mg/kg.

In the case of `CCCCCC(=O)Nc1cc(C(F)(F)F)cnc1NS(C)(=O)=O` [Compound No. 3], the inhibition in vivo at 10 mg/kg [1, 5] is reported as 49%, the inhibition in vivo at 10 mg/kg [1, 6] is reported as 51% and the “Inhibition rate (%)” value ([2]; dose 50 mg/kg orally) is reported as 58%. The inhibition in vivo at 100 mg/kg (carrageenin edema) was 20%, the inhibition at 1000 ppm [3] was 67% and the LD50 at 168 h ([4]; iv) was over 100 mg/kg.

In the case of `CS(=O)(=O)Nc1ncc(C(F)(F)F)cc1NC(=O)C1CCCCC1` [compound 8], the “Inhibition rate (%)” value ([2]; dose 20 mg/kg orally) is reported as 48%, the inhibition at 1000 ppm [3] is reported as 81% and the LD50 at 168 h ([4]; iv) is reported as over 25 mg/kg.

For `C=CC(=O)Nc1cc(C(F)(F)F)cnc1NS(C)(=O)=O` [compound 9], the inhibition in vivo at 10 mg/kg [1, 5] was 36%, the inhibition in vivo at 10 mg/kg [1, 6] was 21% and the “Inhibition rate (%)” value ([2]; dose 50 mg/kg orally) was 81%. It also gave an inhibition at 1000 ppm [3] of 71% and an LD50 at 168 h ([4]; iv) of over 150 mg/kg.

With `CS(=O)(=O)Nc1ncc(C(F)(F)F)cc1NC(=O)C(F)(F)Cl` [compound 11] the “Inhibition rate of hemorrhagic lesions (%)” value ([1]; 23 mg/kg continuous intravenous injection) was 52%, the “Inhibition rate (%)” value ([2]; dose 100 mg/kg orally) was 49% and the inhibition in vivo at 100 mg/kg (carrageenin edema) was 24%. For the same compound, the inhibition at 1000 ppm [3] was 52% and the LD50 at 168 h ([4]; iv) was over 150 mg/kg.

With `CCOC(=O)Nc1cc(C(F)(F)F)cnc1NS(C)(=O)=O` [compound 15] the inhibition in vivo at 10 mg/kg [1, 5] was 45%, the inhibition in vivo at 10 mg/kg [1, 6] was 61% and the “Inhibition rate (%)” value ([2]; dose 50 mg/kg orally) was 41%. It also gave an inhibition at 1000 ppm [3] of 62% and an LD50 at 168 h [4] of 100 to 150 mg/kg.

In the case of `CCCOC(=O)Nc1cc(C(F)(F)F)cnc1NS(C)(=O)=O` [compound 16], the “Inhibition rate of hemorrhagic lesions (%)” value [1, 7] is reported as 52%, the “Inhibition rate (%)” value ([2]; dose 20 mg/kg orally) is reported as 55% and the inhibition in vivo at 100 mg/kg (carrageenin edema) is reported as 24%. For the same compound, the inhibition at 1000 ppm [3] was 43% and the LD50 at 168 h [4] was over 100 mg/kg.

With `CCCCOC(=O)Nc1cc(C(F)(F)F)cnc1NS(C)(=O)=O` [compound 17] the “Inhibition rate of hemorrhagic lesions (%)” value [1, 7] was 73%, the “Inhibition rate (%)” value ([2]; dose 50 mg/kg orally) was 31% and the inhibition at 1000 ppm [3] was 46%. For the same compound, the LD50 at 168 h [4] was 50 to 100 mg/kg.
